Results taken from PubChem BioAssay AID1963420 (Molecular Pharmacology Branch, DTP, NCI, 2024).

Tested on: 494315-158-R-J1-PDC complex spheroid growth, percent test/control
Assay: Anticancer human tumor 494315-158-R-J1-PDC patient-derived soft tissue sarcoma cell line growth inhibition [Asc]
Conditions: for IC50: curve of first compound; for viability, T/C: stronger effect = lower value
Summary of the method: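 Stromal components (HUVEC and hMSC) are co-assembled with the cancer cells into multicellular spheroids. Drugs are then added singly or paired, at concentrations falling by half-log increments from a clinically achievable maximum, capped at 10 microM without known Cmax.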
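Note: compound exposure lasted seven days after spheroids formed for three days.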

## O=C(c1ccc(F)c(F)c1Nc1ccc(I)cc1F)N1CC(O)([C@@H]2CCCCN2)C1 + CCN1C(C(=O)NC23CCC(C(=O)O)(CC2)CC3)C(c2cccc(Cl)c2F)C2(C(=O)Nc3cc(Cl)ccc32)C12CCCCC2
Second compound 0.03 µM
  IC50: > 1000 nM
Second compound 0.0949 µM
  IC50: > 1000 nM
Second compound 0.3 µM
  IC50: > 1000 nM
Second compound 0.949 µM
  IC50: > 1000 nM
Second compound 3 µM
  IC50: 795 nM
Second compound 0.03 µM, first compound 0.00316 µM
  viability, T/C: 110%
Second compound 0.03 µM, first compound 0.01 µM
  viability, T/C: 116%
Second compound 0.03 µM, first compound 0.0316 µM
  viability, T/C: 121%
Second compound 0.03 µM, first compound 0.1 µM
  viability, T/C: 115%
Second compound 0.03 µM, first compound 0.316 µM
  viability, T/C: 95.7%
Second compound 0.03 µM, first compound 1 µM
  viability, T/C: 61.7%
Second compound 0.0949 µM, first compound 0.00316 µM
  viability, T/C: 98%
Second compound 0.0949 µM, first compound 0.01 µM
  viability, T/C: 90.5%
Second compound 0.0949 µM, first compound 0.0316 µM
  viability, T/C: 110%
Second compound 0.0949 µM, first compound 0.1 µM
  viability, T/C: 99.2%
Second compound 0.0949 µM, first compound 0.316 µM
  viability, T/C: 96.6%
Second compound 0.0949 µM, first compound 1 µM
  viability, T/C: 58.4%
Second compound 0.3 µM, first compound 0.00316 µM
  viability, T/C: 98.9%
Second compound 0.3 µM, first compound 0.01 µM
  viability, T/C: 114%
Second compound 0.3 µM, first compound 0.0316 µM
  viability, T/C: 120%
Second compound 0.3 µM, first compound 0.1 µM
  viability, T/C: 111%
Second compound 0.3 µM, first compound 0.316 µM
  viability, T/C: 87.8%
Second compound 0.3 µM, first compound 1 µM
  viability, T/C: 51.2%
Second compound 0.949 µM, first compound 0.00316 µM
  viability, T/C: 88.4%
Second compound 0.949 µM, first compound 0.01 µM
  viability, T/C: 93.7%
Second compound 0.949 µM, first compound 0.0316 µM
  viability, T/C: 137%
Second compound 0.949 µM, first compound 0.1 µM
  viability, T/C: 127%
Second compound 0.949 µM, first compound 0.316 µM
  viability, T/C: 97.7%
Second compound 0.949 µM, first compound 1 µM
  viability, T/C: 61.3%
Second compound 3 µM, first compound 0.00316 µM
  viability, T/C: 98.2%
Second compound 3 µM, first compound 0.01 µM
  viability, T/C: 102%
Second compound 3 µM, first compound 0.0316 µM
  viability, T/C: 101%
Second compound 3 µM, first compound 0.1 µM
  viability, T/C: 112%
Second compound 3 µM, first compound 0.316 µM
  viability, T/C: 84.5%
Second compound 3 µM, first compound 1 µM
  viability, T/C: 41.4%
